Assay results taken from ChEMBL document CHEMBL6109108, “A comprehensive review of fused imidazonaphthyridine derivatives: Synthetic approaches and biological applications” (Bioorg Med Chem, 2025).
≈ marks a conversion by molar mass, not a printed value.

Key:
[1] = test system: Staphylococcus aureus; assay: Antibacterial activity against Staphylococcus aureus assessed as zone of inhibition at 10 ug/ml by agar disc diffusion method; assay type: functional; conditions: read-out: IZ
[2] = test system: Staphylococcus aureus; assay: Antibacterial activity against Staphylococcus aureus assessed as zone of inhibition at 25 ug/ml by agar disc diffusion method; assay type: functional; conditions: read-out: IZ
[3] = test system: Staphylococcus aureus; assay: Antibacterial activity against Staphylococcus aureus assessed as zone of inhibition at 35 ug/ml by agar disc diffusion method; assay type: functional; conditions: read-out: IZ
[4] = test system: Escherichia coli; assay: Antibacterial activity against Escherichia coli assessed as zone of inhibition at 10 ug/ml by agar disc diffusion method; assay type: functional; conditions: read-out: IZ
[5] = test system: Escherichia coli; assay: Antibacterial activity against Escherichia coli assessed as zone of inhibition at 25 ug/ml by agar disc diffusion method; assay type: functional; conditions: read-out: IZ
[6] = test system: Escherichia coli; assay: Antibacterial activity against Escherichia coli assessed as zone of inhibition at 35 ug/ml by agar disc diffusion method; assay type: functional; conditions: read-out: IZ
[7] = test system: Candida metapsilosis; assay: Antifungal activity against Candida metapsilosis assessed as zone of inhibition at 10 ug/ml by disc diffusion method; assay type: functional; conditions: Lodderomyces metapsilosis, read-out: IZ
[8] = test system: Candida metapsilosis; assay: Antifungal activity against Candida metapsilosis assessed as zone of inhibition at 25 ug/ml by disc diffusion method; assay type: functional; conditions: Lodderomyces metapsilosis, read-out: IZ
[9] = test system: Candida metapsilosis; assay: Antifungal activity against Candida metapsilosis assessed as zone of inhibition at 35 ug/ml by disc diffusion method; assay type: functional; conditions: Lodderomyces metapsilosis, read-out: IZ
[10] = test system: Aspergillus niger; assay: Antifungal activity against Aspergillus niger assessed as zone of inhibition at 10 ug/ml by disc diffusion method; assay type: functional; conditions: read-out: IZ
[11] = test system: Aspergillus niger; assay: Antifungal activity against Aspergillus niger assessed as zone of inhibition at 25 ug/ml by disc diffusion method; assay type: functional; conditions: read-out: IZ
[12] = test system: Aspergillus niger; assay: Antifungal activity against Aspergillus niger assessed as zone of inhibition at 35 ug/ml by disc diffusion method; assay type: functional; conditions: read-out: IZ
[13] = target: hERG (KCNH2) (Homo sapiens, UniProt Q12809); assay: Inhibition of hERG potassium […] at 6.25 uM relative to control; assay type: toxicity
Sequence of hERG (KCNH2) (Q12809 whole entry): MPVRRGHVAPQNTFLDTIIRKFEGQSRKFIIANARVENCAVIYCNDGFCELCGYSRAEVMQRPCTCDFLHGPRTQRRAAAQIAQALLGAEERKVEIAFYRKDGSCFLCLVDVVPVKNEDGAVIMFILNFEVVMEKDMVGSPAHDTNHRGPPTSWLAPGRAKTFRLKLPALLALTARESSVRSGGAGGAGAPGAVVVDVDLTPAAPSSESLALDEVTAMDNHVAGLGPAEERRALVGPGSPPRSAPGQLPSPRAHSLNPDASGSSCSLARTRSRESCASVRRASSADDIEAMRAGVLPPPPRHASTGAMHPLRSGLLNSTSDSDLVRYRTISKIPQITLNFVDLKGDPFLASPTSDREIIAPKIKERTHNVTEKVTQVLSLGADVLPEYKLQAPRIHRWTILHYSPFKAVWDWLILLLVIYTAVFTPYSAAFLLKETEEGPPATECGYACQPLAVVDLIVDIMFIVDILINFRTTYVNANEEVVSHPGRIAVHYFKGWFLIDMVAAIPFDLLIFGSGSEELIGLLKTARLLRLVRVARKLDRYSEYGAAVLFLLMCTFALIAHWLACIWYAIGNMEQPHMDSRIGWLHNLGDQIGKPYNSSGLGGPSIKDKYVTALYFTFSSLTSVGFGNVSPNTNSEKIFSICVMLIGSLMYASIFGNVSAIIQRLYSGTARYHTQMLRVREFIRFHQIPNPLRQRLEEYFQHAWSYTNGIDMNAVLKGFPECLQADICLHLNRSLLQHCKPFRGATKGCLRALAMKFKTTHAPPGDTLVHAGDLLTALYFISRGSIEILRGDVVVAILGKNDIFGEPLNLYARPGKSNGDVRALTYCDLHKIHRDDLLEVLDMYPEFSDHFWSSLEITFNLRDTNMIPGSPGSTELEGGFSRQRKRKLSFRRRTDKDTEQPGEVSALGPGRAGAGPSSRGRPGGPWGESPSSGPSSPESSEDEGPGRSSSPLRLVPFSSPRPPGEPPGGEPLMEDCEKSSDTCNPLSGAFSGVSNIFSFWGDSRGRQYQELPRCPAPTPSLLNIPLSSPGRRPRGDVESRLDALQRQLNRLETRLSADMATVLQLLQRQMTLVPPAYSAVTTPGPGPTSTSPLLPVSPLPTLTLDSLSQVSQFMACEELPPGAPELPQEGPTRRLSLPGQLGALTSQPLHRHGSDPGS

[14] = test system: Rattus norvegicus; assay: Anti-inflammatory activity against carrageenan-induced paw edema in rat assessed as inhibition of paw edema at 50 mg/kg, po relative to control; assay type: functional; design: scale not given: the % may be the effect or the level left
[15] = target: Voltage-gated inwardly rectifying potassium channel KCNH2 (Homo sapiens, UniProt Q12809); assay: Inhibition of hERG; assay type: toxicity
Sequence of Voltage-gated inwardly rectifying potassium channel KCNH2 (Q12809 whole entry, the tested form may be a part): as the sequence (Q12809 whole entry) above

[16] = test system: Escherichia coli; assay: Antibacterial activity against Escherichia coli assessed as zone of inhibition at 150 ug/ml by agar disc diffusion method; assay type: functional; conditions: read-out: IZ
[17] = test system: Escherichia coli; assay: Antibacterial activity against Escherichia coli assessed as zone of inhibition at 200 ug/ml by agar disc diffusion method; assay type: functional; conditions: read-out: IZ
[18] = test system: Escherichia coli; assay: Antibacterial activity against Escherichia coli assessed as zone of inhibition at 250 ug/ml by agar disc diffusion method; assay type: functional; conditions: read-out: IZ
[19] = test system: Bacillus subtilis; assay: Antibacterial activity against Bacillus subtilis assessed as zone of inhibition at 150 ug/ml by agar disc diffusion method; assay type: functional; conditions: read-out: IZ
[20] = test system: Bacillus subtilis; assay: Antibacterial activity against Bacillus subtilis assessed as zone of inhibition at 200 ug/ml by agar disc diffusion method; assay type: functional; conditions: read-out: IZ
[21] = test system: Bacillus subtilis; assay: Antibacterial activity against Bacillus subtilis assessed as zone of inhibition at 250 ug/ml by agar disc diffusion method; assay type: functional; conditions: read-out: IZ
[22] = test system: Pseudomonas aeruginosa; assay: Antibacterial activity against Pseudomonas aeruginosa assessed as zone of inhibition at 150 ug/ml by agar disc diffusion method; assay type: functional; conditions: read-out: IZ
[23] = test system: Pseudomonas aeruginosa; assay: Antibacterial activity against Pseudomonas aeruginosa assessed as zone of inhibition at 200 ug/ml by agar disc diffusion method; assay type: functional; conditions: read-out: IZ
[24] = test system: Pseudomonas aeruginosa; assay: Antibacterial activity against Pseudomonas aeruginosa assessed as zone of inhibition at 250 ug/ml by agar disc diffusion method; assay type: functional; conditions: read-out: IZ
[25] = test system: Staphylococcus aureus; assay: Antibacterial activity against Staphylococcus aureus assessed as zone of inhibition at 200 ug/ml by agar disc diffusion method; assay type: functional; conditions: read-out: IZ
[26] = test system: Staphylococcus aureus; assay: Antibacterial activity against Staphylococcus aureus assessed as zone of inhibition at 250 ug/ml by agar disc diffusion method; assay type: functional; conditions: read-out: IZ
[27] = test system: Staphylococcus aureus; assay: Antibacterial activity against Staphylococcus aureus assessed as zone of inhibition at 150 ug/ml by agar disc diffusion method; assay type: functional; conditions: read-out: IZ
[28] = test system: Staphylococcus aureus; assay: Antibacterial activity against Staphylococcus aureus assessed as zone of inhibition at 10 ug/ml by agar well diffusion method; assay type: functional; conditions: read-out: IZ
[29] = test system: Staphylococcus aureus; assay: Antibacterial activity against Staphylococcus aureus assessed as zone of inhibition at 25 ug/ml by agar well diffusion method; assay type: functional; conditions: read-out: IZ
[30] = test system: Staphylococcus aureus; assay: Antibacterial activity against Staphylococcus aureus assessed as zone of inhibition at 35 ug/ml by agar well diffusion method; assay type: functional; conditions: read-out: IZ
[31] = test system: Escherichia coli; assay: Antibacterial activity against Escherichia coli assessed as zone of inhibition at 10 ug/ml by agar well diffusion method; assay type: functional; conditions: read-out: IZ
[32] = test system: Escherichia coli; assay: Antibacterial activity against Escherichia coli assessed as zone of inhibition at 25 ug/ml by agar well diffusion method; assay type: functional; conditions: read-out: IZ
[33] = test system: Escherichia coli; assay: Antibacterial activity against Escherichia coli assessed as zone of inhibition at 35 ug/ml by agar well diffusion method; assay type: functional; conditions: read-out: IZ
[34] = test system: Escherichia coli; assay: Antibacterial activity against Escherichia coli 209p assessed as reduction in bacterial growth by CLSI protocol based agar dilution method; assay type: functional
[35] = test system: Shigella flexneri; assay: Antibacterial activity against Shigella flexneri NIHJ assessed as reduction in bacterial growth by CLSI protocol based agar dilution method; assay type: functional
[36] = test system: Pseudomonas aeruginosa; assay: Antibacterial activity against Pseudomonas aeruginosa assessed as reduction in bacterial growth by CLSI protocol based agar dilution method; assay type: functional
[37] = test system: Staphylococcus aureus; assay: Antibacterial activity against Staphylococcus aureus assessed as reduction in bacterial growth by CLSI protocol based agar dilution method; assay type: functional
[38] = test system: Hepatitis C virus; assay: Antiviral activity against Hepatitis C virus genotype 2a infected in human Huh-7 cells assessed as reduction in viral infection; assay type: functional, organism-based, Hepacivirus hominis

`O=c1oc2ccccc2cc1-c1cnc2c(-c3cccc(O)c3)cc3cccnc3n12` was tested, and the zone of inhibition at 10 µg/mL [1] was 8 mm, the zone of inhibition at 25 µg/mL [2] was 19 mm and the zone of inhibition at 35 µg/mL [3] was 31 mm. The zone of inhibition at 10 µg/mL [4] was 8 mm, the zone of inhibition at 25 µg/mL [5] was 2 mm and the zone of inhibition at 35 µg/mL [6] was 32 mm. It also gave a zone of inhibition at 10 µg/mL [7] of 7 mm, a zone of inhibition at 25 µg/mL [8] of 17 mm and a zone of inhibition at 35 µg/mL [9] of 28 mm. For the same compound, the zone of inhibition at 10 µg/mL [10] was 7 mm, the zone of inhibition at 25 µg/mL [11] was 20 mm and the zone of inhibition at 35 µg/mL [12] was 28 mm.
In the case of `Cc1cc(C)c2ccc3nc(-c4ccc(F)cc4)c(CN4CCCCC4)n3c2n1`, the inhibition at 6.25 µM [13] is reported as 11%.
For `CCn1cnc2c3cccnc3n(-c3ccccc3)c(=O)c21`, the Activity [14] was 58.2%.
With `O=[N+]([O-])c1cccc(-c2cc3cccnc3n3c(-c4ccc(Cl)cc4)cnc23)c1` the zone of inhibition at 10 µg/mL [1] was 8 mm, the zone of inhibition at 25 µg/mL [2] was 19 mm and the zone of inhibition at 35 µg/mL [3] was 29 mm. For the same compound, the zone of inhibition at 10 µg/mL [4] was 8 mm, the zone of inhibition at 25 µg/mL [5] was 20 mm and the zone of inhibition at 35 µg/mL [6] was 30 mm. For the same compound, the zone of inhibition at 10 µg/mL [7] was 7 mm, the zone of inhibition at 25 µg/mL [8] was 17 mm and the zone of inhibition at 35 µg/mL [9] was 28 mm. The zone of inhibition at 10 µg/mL [10] was 7 mm, the zone of inhibition at 25 µg/mL [11] was 20 mm and the zone of inhibition at 35 µg/mL [12] was 28 mm.
Work on `Cc1cc(C)c2ccc3nc(-c4ccccc4)c(CN4CCCCC4)n3c2n1` yielded an IC50 [15] of 1.19 µM.
`Cc1cc(C)c2ccc3nc(-c4ccccc4)c(CN4CCCC4)n3c2n1` showed an IC50 [15] of 92.2 µM.
In the case of `O=[N+]([O-])c1cccc(-c2cc3cccnc3n3c2nc2ccc(O)cc23)c1`, the zone of inhibition at 150 µg/mL [16] is reported as 17 mm, the zone of inhibition at 200 µg/mL [17] is reported as 22 mm and the zone of inhibition at 250 µg/mL [18] is reported as 22 mm. It also gave a zone of inhibition at 150 µg/mL [19] of 16 mm, a zone of inhibition at 200 µg/mL [20] of 19 mm and a zone of inhibition at 250 µg/mL [21] of 23 mm. The zone of inhibition at 150 µg/mL [22] was 17 mm, the zone of inhibition at 200 µg/mL [23] was 20 mm and the zone of inhibition at 250 µg/mL [24] was 22 mm. For the same compound, the zone of inhibition at 200 µg/mL [25] was 20 mm, the zone of inhibition at 250 µg/mL [26] was 22 mm and the zone of inhibition at 150 µg/mL [27] was 18 mm.
With `Fc1ccc(-c2cc3cccnc3n3c(-c4ccc(Br)cc4)cnc23)c(Cl)c1` the zone of inhibition at 10 µg/mL [28] was 6 mm, the zone of inhibition at 25 µg/mL [29] was 16 mm and the zone of inhibition at 35 µg/mL [30] was 24 mm. It also gave a zone of inhibition at 10 µg/mL [31] of 6 mm, a zone of inhibition at 25 µg/mL [32] of 16 mm and a zone of inhibition at 35 µg/mL [33] of 25 mm.
With `Oc1ccc2nc3c(-c4ccccc4C(F)(F)F)cc4cccnc4n3c2c1` the zone of inhibition at 150 µg/mL [16] was 17 mm, the zone of inhibition at 200 µg/mL [17] was 22 mm and the zone of inhibition at 250 µg/mL [18] was 22 mm. It also gave a zone of inhibition at 150 µg/mL [19] of 16 mm, a zone of inhibition at 200 µg/mL [20] of 19 mm and a zone of inhibition at 250 µg/mL [21] of 23 mm. The zone of inhibition at 150 µg/mL [22] was 17 mm, the zone of inhibition at 200 µg/mL [23] was 20 mm and the zone of inhibition at 250 µg/mL [24] was 22 mm. The zone of inhibition at 200 µg/mL [25] was 20 mm, the zone of inhibition at 250 µg/mL [26] was 22 mm and the zone of inhibition at 150 µg/mL [27] was 18 mm.
With `CCn1cnc2cc3c(=O)c(C(=O)O)cn(CC)c3nc21` the MIC [34] was 3.13 µg/mL (≈ 10.9 µM), the MIC [35] was 3.13 µg/mL (≈ 10.9 µM) and the MIC [36] was greater than 100 µg/mL. It also gave an MIC [37] of 25 µg/mL (≈ 87.3 µM).
`Cc1ccccc1-c1cnc2ccc3c(C(F)(F)F)cc(C(F)(F)F)nc3n12` showed an EC50 [38] of 2800 nM.
`Cn1cnc2c3cccnc3n(-c3ccccc3)c(=O)c21` was tested, and the Activity [14] was 40%.
Compound `O=[N+]([O-])c1cccc(-c2cnc3c(-c4ccc(F)cc4Cl)cc4cccnc4n23)c1` has a zone of inhibition at 10 µg/mL [28] of 6 mm, a zone of inhibition at 25 µg/mL [29] of 16 mm and a zone of inhibition at 35 µg/mL [30] of 24 mm. The zone of inhibition at 10 µg/mL [31] was 6 mm, the zone of inhibition at 25 µg/mL [32] was 16 mm and the zone of inhibition at 35 µg/mL [33] was 25 mm.
